The values below come from patent US6380238B1, “Indoline derivatives as 5-HT2B and or 5-HTC receptor ligands” (Vernalis Research Limited, priority 1998, dated 2002).

The target in one assay is T1, human 5-HT2B receptors (Homo sapiens, UniProt P41595).
T1 construct: expressed in transfected cells; host or cells: CHO cell line
Put plainly: Binding to 5-HT2B receptor, [3H]-5-HT radioligand, CHO cell line. The protocol: (§1) 1. Binding to Serotonin Receptors
(§2) The binding of compounds of formula (I) to serotonin receptors was determined in vitro by standard methods. The preparations were investigated in accordance with the assays given hereinafter.
Method (b): For the binding to the 5-HT2B receptor the 5-HT2B receptors were radiolabeled with [^3H]-5-HT. The affinity of the compounds for human 5-HT2B receptors in a CHO cell line was determined according to the procedure of K. Schmnuck, C. Ullmer, P. Engels and H. Lubbert, FEBS Lett., 1994, 342, 85-90.

For a further assay, the system named is 5-HT2C syndrome. As to the kind of experiment: 5-HT2C syndrome in rats (splayed limbs, hunched posture, retro-pulsion). It is filed as in vivo. To be noted: 30 mg/kg s.c. How it is done:
The efficacy of 5-HT2C agonists was assessed for ability to induce a specific syndrome.
The 5-HT2C syndrome is a rapid screening method to assess the in vivo efficacy of 5-HT2C agonists through their ability to induce three specific behaviours in rats. The animals are dosed with either a positive control (mCPP), test compound or vehicle, either sub-cutaneously or p.o. The animals are observed on an open bench, typically 30, 60 and 180 minutes and the degree of syndrome is assessed over a two minute period on a scale of 0-3 depending on the presence and severity of splayed limbs, hunched posture and retro-pulsion, the three specific behaviours which constitute the syndrome. Data is analysed using Kruskal-Wallis Analysis of Variance followed with appropriate post-hoc tests. All statistical analysis are conducted using Excel version 7.0 (Microsoft Corp.) and Statistica version 5.0 (Statsoft, Inc.).

The target in assay [1] is T2, 5-HT2C receptor (Homo sapiens, UniProt P28335).
T2 sequence (P28335 33-458): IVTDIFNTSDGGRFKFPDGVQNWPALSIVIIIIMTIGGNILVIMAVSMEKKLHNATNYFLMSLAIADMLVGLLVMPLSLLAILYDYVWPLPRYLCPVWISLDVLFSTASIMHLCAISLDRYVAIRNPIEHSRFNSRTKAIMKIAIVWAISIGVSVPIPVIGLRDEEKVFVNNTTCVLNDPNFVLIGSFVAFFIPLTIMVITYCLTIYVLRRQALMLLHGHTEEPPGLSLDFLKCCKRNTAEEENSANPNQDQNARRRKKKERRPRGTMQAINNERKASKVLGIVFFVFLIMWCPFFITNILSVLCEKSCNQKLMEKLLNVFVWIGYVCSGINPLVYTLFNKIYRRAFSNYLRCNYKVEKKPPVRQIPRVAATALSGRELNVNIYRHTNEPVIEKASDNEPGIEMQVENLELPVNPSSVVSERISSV
Put plainly: Binding to 5-HT2C receptor, [3H]-5-HT radioligand, CHO cell line. Details: expressed in transfected cells; host or cells: CHO cell line. How it is done:
as §1, §2
Method (a): For the binding to the 5-HT2C receptor the 5-HT2C receptors were radiolabeled with [^3H]-5-HT. The affinity of the compounds for 5-HT2C receptors in a CHO cell line was determined according to the procedure of D. Hoyer, G. Engel and H. O. Kalkman, European J. Pharmacol., 1985, 118, 13-23.

The target in assay [2] is T3, 5-HT2A receptor (Homo sapiens, UniProt P28223). As to the kind of experiment: Binding to 5-HT2A receptor, [125I]-DOI radioligand, CHO cell line. Details: expressed in transfected cells; host or cells: CHO cell line. The protocol: as §1, §2
T3 sequence (P28223 whole entry): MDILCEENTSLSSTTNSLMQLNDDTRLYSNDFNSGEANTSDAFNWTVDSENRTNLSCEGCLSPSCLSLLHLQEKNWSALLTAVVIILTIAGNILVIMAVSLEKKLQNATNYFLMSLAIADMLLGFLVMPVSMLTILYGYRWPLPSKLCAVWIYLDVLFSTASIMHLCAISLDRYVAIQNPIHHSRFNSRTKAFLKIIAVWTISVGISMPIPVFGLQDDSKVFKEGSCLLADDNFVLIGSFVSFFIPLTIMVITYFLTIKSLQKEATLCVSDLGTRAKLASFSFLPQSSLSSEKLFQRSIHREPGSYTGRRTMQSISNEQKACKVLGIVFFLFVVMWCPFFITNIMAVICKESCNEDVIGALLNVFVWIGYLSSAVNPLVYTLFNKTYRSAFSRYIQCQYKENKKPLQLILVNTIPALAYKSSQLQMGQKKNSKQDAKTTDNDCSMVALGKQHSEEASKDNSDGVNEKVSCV
Method (c): For the binding to the 5-HT2A receptor the 5-HT2A receptors were radiolabeled with [^125I]-DOI. The affinity of the compounds for 5-HT2A receptors in a CHO cell line was determined according to the procedure of D. J. McKenna and S. J. Peroutka, J. Neurosci., 1989, 9, 3482-90.

The target of assay [3] is T3, 5-HT2A receptor. Put plainly: Functional activity, FLIPR calcium assay in CHO cells expressing human 5-HT2A. It is filed as cell-based. On the set-up: expressed in transfected cells; host or cells: CHO cells. The settings on record: for Emax: CHO, read-out: h5-HT2A Relative Efficacy (%); for EC50: FLIPR, CHO cells, Fluo-3-AM, read-out: h5-HT2A EC50. How it is done:
(§3) The functional activity of compounds of formula (I) was assayed using a Fluorimetric Imaging Plate reader (FLIPR). CHO cells expressing the human 5-HT2C or human 5-HT2A receptors were counted and plated into standard 96 well microtitre plates on the day before testing to give a confluent monolayer. The cells were then dye loaded with the calcium sensitive dye, Fluo-3-AM. Unincorporated dye was removed using an automated cell washer to leave a total volume of 100 μL/well of assay buffer (Hanks balanced salt solution containing 20 mM Hepes and 2.5 mM probenecid). The drug (dissolved in 50 μL of the assay buffer) was added at a rate of 70 μL/sec to each well of the FLIPR 96 well plate during fluorescence measurements. The measurements were taken at 1 sec intervals and the maximum fluorescent signal was measured (approx 10-15 secs after drug addition) and compared with the response produced by 10 μM 5-HT (defined as 100%) to which it was expressed as a percentage response (relative efficacy). Dose response curves were constructed using Graphpad Prism (Graph Software Inc.).

The target in assay [4] is T2, 5-HT2C receptor. Put plainly: Functional activity, FLIPR calcium assay in CHO cells expressing human 5-HT2C. The format is cell-based. Details: expressed in transfected cells; host or cells: CHO cells. To be noted: for Emax: CHO, read-out: h5-HT2C Relative Efficacy (%); for EC50: FLIPR, CHO cells, Fluo-3-AM, read-out: h5-HT2C EC50. The protocol: as §3
For assay [5] the following is noted: cited from earlier work.
The conditions of assay [6]: cited from earlier work. This is another data set of the same source.
In assay [7] the test system is 5-HT2C receptor. To be noted: cited from earlier work.
Setting [8] is: [3H]-5-HT, human receptor, CHO cell line, read-out: Ki (2B).
Setting [9] is: [3H]-5-HT, CHO cell line, read-out: Ki (2C).
[10] abbreviates: [125I]-DOI, CHO cell line, read-out: Ki (2A).

Structures can show the parent of a compound that is named as a salt. Where two headings read alike, the source gives them in different places.

T1 sequence (P41595 whole entry): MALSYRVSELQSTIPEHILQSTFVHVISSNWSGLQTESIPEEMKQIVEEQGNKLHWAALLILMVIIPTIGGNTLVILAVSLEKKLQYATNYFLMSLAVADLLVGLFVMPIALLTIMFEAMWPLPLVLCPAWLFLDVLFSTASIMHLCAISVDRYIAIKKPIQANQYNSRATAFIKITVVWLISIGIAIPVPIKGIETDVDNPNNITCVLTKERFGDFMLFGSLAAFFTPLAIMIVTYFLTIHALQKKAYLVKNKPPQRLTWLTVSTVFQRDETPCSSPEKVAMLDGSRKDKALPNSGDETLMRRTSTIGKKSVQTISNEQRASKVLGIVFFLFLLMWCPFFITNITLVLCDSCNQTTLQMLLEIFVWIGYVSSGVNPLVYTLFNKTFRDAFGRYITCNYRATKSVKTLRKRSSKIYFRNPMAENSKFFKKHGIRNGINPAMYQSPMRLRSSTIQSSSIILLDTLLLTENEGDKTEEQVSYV

For the molecule `CC(N)CN1CCc2ccc(Cl)cc21` (racemic) [Example 1, (RS)-1-(6-Chloroindolin-1-yl)-2-propylamine Hydrochloride], the Ki on human 5-HT2B receptors was 113 nM; at 5-HT2C receptor [1], 357 nM; on 5-HT2A receptor [2], 405 nM. In the assay with 5-HT2C syndrome, the “time for which significant pharmacological efficacy is maintained (5-HT2C syndrome)” value was “at least 180 minutes”.
Turning to `NCCN1CCc2ccc(Br)cc21` [Example 50, 2-(6-Bromoindolin-1-yl)-1-ethylamine Fumarate], the values for the Ki on human 5-HT2B receptors (setting [8]), on 5-HT2C receptor [1] (setting [9]) and on 5-HT2A receptor [2] (setting [10]) were 159 nM, 61 nM and 332 nM, respectively. Further, the Emax at 5-HT2A receptor [3] was 25%; on 5-HT2C receptor [4], 78%. The EC50 at 5-HT2A receptor [3] came out at 4080 nM; at 5-HT2C receptor [4], 38 nM.
As for `NCCN1CCc2ccc(Cl)cc21` [Example 51, 2-(6-Chloroindolin-1-yl)-1-ethylamine Fumarate], the Ki at human 5-HT2B receptors (setting [8]) was found to be 140 nM; on 5-HT2C receptor [1] (setting [9]) it was 165 nM; on 5-HT2A receptor [2] (setting [10]), 1110 nM. Also, the Emax on 5-HT2A receptor [3] was found to be 45%; on 5-HT2C receptor [4], 88%. The EC50 turned out to be 1890 nM on 5-HT2A receptor [3] and 36 nM at 5-HT2C receptor [4].
As for `Clc1cccc(N2CCNCC2)c1` [mCPP, m-chlorophenylpiperazine], the “appearance of the behavioural satiety sequence” value in assay [5] (rat, in vivo) is reported as “accelerate the appearance of the behavioural satiety sequence”. Moreover, the “food intake in rats” value in assay [5] (rats) is “reduce food intake”. Also, in assay [6] (obese male and female subjects, subchronic treatment for a 14 day period), the “appetite and body weight of obese subjects” value was “decreased the appetite and body weight”. Also, the “food intake in female volunteers” value in [6] (single dose, female volunteers) is “decreased food intake”. The “anorectic action in 5-HT2C receptor knockout mutant mice” value in the assay with 5-HT2C receptor [7] is on record as “absent”.

One may read the Ki as a measure of affinity in units of concentration, obtained from inhibition or displacement. The EC50 is the midpoint of the concentration-response curve.
